# According to PubChem BioAssay AID179 (DTP/NCI, 2004):
# Values joined by “and” are separate entries in the source; they are usually repeats but may differ in a detail not shown here. Equal values may be shown once. Active and inactive are the calls of the source.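 How the source made its calls: active means compounds giving half or more protection of infected cells from virus-caused growth loss, again on retest; inactive means the rest.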 Where a SMILES comes first, the peptide text is derived from it.
# Tested on: CEM cells HIV-1 protection, formazan growth assay
# Assay: NCI AIDS Antiviral Assay
# Details: for IC50: measured here: growth of uninfected CEM cells
# Procedure, shortened: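 Steps: treat uninfected and HIV-1-infected human CEM cells at five drug levels; quantify growth by soluble formazan; retest any compound reaching 50% protection; classify actives from the retest.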
Structure (SMILES),EC50 [µM],IC50,outcome
N#C/C(=C/NC(=S)Nc1ccccc1)C(N)=O,> 200,> 200 µM,
CN(CCC#N)c1ccc(/C=C2\SC(=S)NC2=O)cc1,> 200,34.7 µM,
O=C1CCC(=O)N1C(c1ccccc1)(c1ccccc1)c1ccccc1,> 200,> 200 µM,
CCC(C)C(NC(=O)CNC(=O)CN)C(=O)NCC(=O)NCC(=O)O (stereo not given) (HELM PEPTIDE1{G.G.[CCC(C)C(N[*:1])C(=O)[*:2]].G.G}$$$$V2.0),> 69.2,> 69.2 µM,
C[C@@]1(Br)C[C@@](C)(Cl)[C@@H](Br)CC1/C=C/Cl (stereo not given in full),> 200,77.6 µM,
COc1cc(C2c3cc4c(c(O)c3C(=O)C3CCC(=O)N32)OCO4)cc(OC)c1OC (stereo not given),> 200,20.9 µM,
O=C1CSC2=NC3=C(COC/C3=C\c3ccc(F)cc3)C(c3ccc(F)cc3)N12 (stereo not given),,,inactive
NC(=O)CCCCC1CCSS1 (stereo not given),> 457,> 457 µM,
CC(C)CCCC(C)C1CCC2C3CC[C@H]4C[C@@H](CCC=C(c5cc(Cl)c(OCc6cccc(B7OC(C)(C)C(C)(C)O7)c6)c(C(=O)OCc6cccc(B7OC(C)(C)C(C)(C)O7)c6)c5)c5cc(Cl)c(OCc6cccc(B7OC(C)(C)C(C)(C)O7)c6)c(C(=O)OCc6cccc(B7OC(C)(C)C(C)(C)O7)c6)c5)CC[C@]4(C)C3CC[C@]12C (stereo not given in full),> 50.1,> 50.1 µM,
CC(Cc1ccccc1)N(C)Cc1nc(C2CCC([N+](=O)[O-])O2)no1 (stereo not given),> 200,36.3 µM,
COC(=O)C12N=NN(c3ccccc3)C1(C(=O)OC)C1CCC2C1 (stereo not given),> 200,> 200 µM,
CC1(C)O[C@H]2Cn3c(c(C#N)c4ccccc43)[C@H]2O1,> 200,178 µM,
N=c1oc2ccc3ccccc3c2cc1C(N)=S,> 200,9.55 µM,
Cc1ccc(C(=O)O/N=C2/CCCC/C2=C\c2ccccc2)cc1,,,inactive
COC(=O)C(C)(C)C(OP1(=S)OCCN1C)=C(C)C (stereo not given),> 117,> 117 µM,
COc1ccc2c(c1)C1Oc3ccccc3CC1CO2 (stereo not given),> 200,52.5 µM,
COc1ccc(-n2sc3ncc(-c4ccccc4)cc3c2=O)cc1,7.08,35.5 µM,
COc1c(C(=O)c2ccc([N+](=O)[O-])cc2)cc(C(C)(C)C)cc1C(C)(C)C,,,inactive
ClCCCc1ccccc1C1=NCCc2ccccc21,> 200,5.25 µM,
Nc1nc(N)c2cnnn2n1,> 295,> 295 µM,
O=[N+]([O-])c1ccc(C(Nc2ccccc2)P(c2ccccc2)c2ccccc2)cc1 (stereo not given),> 200,43.7 µM,

Structure (SMILES),EC50 [µM],IC50,outcome
COC(=O)c1c(C(=O)OC)c2ccccn2c1-c1cc(OC)c(Br)c(=O)o1,> 200,> 200 µM,
NCCN.NCCN.NCCN.O=C([O-])[C@@H](O)[C@@H](O)C(=O)[O-].[Cl-].[Co+3],> 100,> 100 µM,
CC(C)(C)OC(=O)N1CCC2(CC1)C(=O)NCN2c1ccccc1,> 200,> 200 µM,
CC(C)=CCC1=C(O)C(=O)C(CC=C(C)C)=C(O)C1=O,> 83.2,43.7 µM,
Cc1ccc(S(=O)(=O)N/N=C2\CCC3(O)CC2(C)CCC2C3CC2(C)C)cc1 (stereo not given),28.2,51.3 µM,
C#CCNC(Cc1ccccc1)C(=O)O (stereo not given),> 200,> 200 µM,
CCOC(=O)c1ccc(C(=O)/C(C(C)=O)=C2\CCCN2C)n1C,89.1,174 µM,
O=C(Nc1ccccc1[N+](=O)[O-])C(=O)C(C(=O)c1ccccc1-c1ccccc1)C1OC(=O)c2ccccc21 (stereo not given),> 50.1,25.7 µM,
COc1ccc(C(=O)/C=C/c2ccc(OCCCOc3ccc(/C=C/C(=O)c4ccc(OC)cc4)cc3)cc2)cc1,> 200,> 200 µM,
CCN1c2ccccc2-n2c(C)nnc2-c2c1n[nH]c2-c1ccccc1,> 200,28.2 µM,
N#CC1(OC2CCCCO2)Cc2ccccc2C1 (stereo not given),> 200,> 200 µM,
COc1ccc2c(c1)CC[C@@H]1[C@@H]2CC[C@]2(C)/C(=N/OCCN3CCCC3)CC[C@@H]12,> 200,1.12 µM,
CC(C)(O)CCC(=O)[C@](C)(O)[C@H]1[C@H](O)C[C@@]2(C)[C@@H]3CC=C4[C@@H](C[C@@H](O)[C@@H](O)C4(C)C)[C@]3(C)C(=O)C[C@]12C,> 200,> 200 µM,
Cc1cc(NS(=O)(=O)c2ccc(N=Nc3cc(S(=O)(=O)O)c4ccccc4c3O)cc2)ccc1N=Nc1ccc2cc(S(=O)(=O)O)cc(S(=O)(=O)O)c2c1,,,active
CCCCC(=S)SSC(C)(C)C,> 200,55 µM,
CC(=O)CC1CCC(=O)CCC(=O)OC(CC(C)=O)CCC(=O)CCC(=O)O1 (stereo not given),170,> 200 µM,
CC1(C)O[C@@H]2[C@@H](COC(C)(C)O[C@H]2C2SCCCS2)O1,> 200,> 200 µM,
CCc1nnc2sc(=S)[nH]n12,,,inactive
N#Cc1c(=O)n(-c2ccccc2)c(O)c2c(N)n[nH]c12,> 200,89.1 µM,
O=C(/C=C\c1ccc(/C=C/C(=O)Nc2cccc(C3=NCCCN3)c2)cc1)Nc1cccc(C2=NCCCN2)c1,> 44.7,8.13 µM,
COc1ccc(OC)c2cc(Cc3ccc(N(C)C)cc3)c(=O)c(Cc3ccc(N(C)C)cc3)cc12,> 200,43.7 µM,

Structure (SMILES),EC50 [µM],IC50,outcome
O=S(=O)(C1=CC(S(=O)(=O)c2ccccc2)CN(Cc2ccccc2)C1c1cccc2ccccc12)c1ccccc1 (stereo not given),,,inactive
COc1cccc2c1C1(O)C2CCCC12OCCCO2 (stereo not given),> 200,> 200 µM,
COc1cc(C2c3[nH]c4ccc(F)cc4c3C[C@H]3COC(=O)N23)cc(OC)c1O (stereo not given in full),> 200,0.575 µM,
COc1ccc(-n2cnc3c(NC(CCSC)C(=O)O)ncnc32)cc1 (stereo not given),75.9,> 200 µM,
CNCCN=c1ccc2c3c1c(O)c1c(O)ccc(=O)c1c3[nH]n2CCNCCO,> 112,0.347 µM,
CC(Oc1ccc(OCC2CCCCC2)cc1)C(=O)O (stereo not given),> 468,457 µM,
O=C(O)c1onc2ccccc12,> 1510,1000 µM,
CCN=c1cc2oc3cc(NCC)c(C)cc3c(-c3ccccc3C(=O)OCC)c-2cc1C,> 200,0.0631 µM and 0.12 µM,
O=C(O)c1c2c(cc3c1CC1(Cc4cc5c(cc4C1=O)CCC5)C3)CCC2 (stereo not given),> 200,72.4 µM,
COc1ccc(OC)c2c(=O)c3ccccc3[nH]c12,,,inactive
Cc1ccc(S(=O)(=O)Nn2c(S)c(C#N)c(-c3ccc(Cl)cc3)c(C#N)c2=O)cc1,> 200,12 µM,
CC1CCC2(NC1)OC1CC3[C@@H]4CC=C5C=CCC[C@]5(C)C4CC[C@]3(C)C1C2C (stereo not given in full),> 9.55,> 9.55 µM,
O=C(/C=C/c1ccccc1Cl)NC1C=Nc2ccc([N+](=O)[O-])cc2NC1 (stereo not given),> 26.9,> 26.9 µM,
N#CC(C(=O)/C(=N/NC(=O)c1ccccc1O)C(C#N)c1ccc(Cl)cc1)c1ccc(Cl)cc1 (stereo not given),> 40.7,22.4 µM,
O=C1c2c(O)ccc(O)c2C(=O)c2c(NCCNC(=O)C(O)C(O)C(O)C(O)CO)ccc(NCCNC(=O)C(O)C(O)C(O)C(O)CO)c21 (stereo not given),> 100,0.0316 µM,
O[C@H]1[C@H](O)[C@@H](O)CN2CC[C@H](O)[C@H]12,204,1260 µM,
CCc1n[nH]c(=O)n1/N=C/c1ccccc1Cl,> 200,> 200 µM,
Cn1c(=O)c2c(nc(N)n2C2OC(CO)C(O)C2O)n(C)c1=O (stereo not given),> 200,> 200 µM,
Cc1ccc(S(=O)(=O)C(CCC(=O)c2ccccc2)(CCC(=O)c2ccccc2)[N+](=O)[O-])cc1,> 10.7,> 10.7 µM,
Nc1nc(N)c(N=O)c(=O)[nH]1,> 200,> 200 µM,
COc1ccc(CN2CCCN(Cc3ccc(OC)cc3)C2c2cc([N+](=O)[O-])ccc2O)cc1,> 200,28.8 µM,

Structure (SMILES),EC50 [µM],IC50,outcome
CC(=O)OCCOCn1c2c(c(=S)[nH]c1=O)CCC2,> 200,> 200 µM,
CCOC(=O)C1Oc2ccc([N+](=O)[O-])cc2C1(C)O (stereo not given),,,inactive
CCOP(=O)(OCC)C1(O)CC(n2cc(C)c(=O)[nH]c2=O)OC1CO (stereo not given),> 200,> 200 µM,
O=C1c2ccccc2-c2nc(-c3ccccc3)cc3c2c1nc1ccccc13,> 200,30.2 µM,
NCC[PH+](c1ccccc1)c1ccccc1.NCC[PH+](c1ccccc1)c1ccccc1.[Cl-].[Pt+4],> 200,72.4 µM,
CC(C)(C)CC(C)(C)c1ccc(O)c(SSc2cc(C(C)(C)CC(C)(C)C)ccc2O)c1,> 200,25.7 µM,
CC(C)(C)[Si](C)(C)OC1C(CC#N)C(CO)OC1n1ccc(=O)[nH]c1=O (stereo not given),> 200,> 200 µM,
O=C(O)Cc1ccc(Nc2nc3ccccc3nc2C(=O)O)cc1,> 200,> 200 µM,
O=C(Nc1cc(C(=O)Nc2ccc(C3=NCCN3)cc2)cc(C2=NCCN2)c1)c1ccc(C(=O)Nc2cc(C(=O)Nc3ccc(C4=NCCN4)cc3)cc(C3=NCCN3)c2)cc1,5.37,89.1 µM,
COc1ccc(-c2oc(/C=N/NC(N)=S)c([N+](=O)[O-])c2-c2ccc(OC)c(OC)c2)cc1OC,> 20.4,> 20.4 µM,
CN1C(=O)C(Cl)(C(Cl)(Cl)S(=O)(=O)O)C(=O)c2ccccc21 (stereo not given),,,inactive
C/C=C(\C1CC(=O)N2CCc3c([nH]c4ccccc34)C2C1)[Si](C)(C)C (stereo not given),> 14.8,> 14.8 µM,
O=C(O)/C=C\C(=O)Nc1ccc(S(=O)(=O)c2ccc(NC(=O)/C=C\C(=O)O)cc2)cc1,> 562,> 562 µM,
Cc1[nH]c2ccccc2c1C(=O)CC1(O)C(=O)Nc2c(Cl)cc(Cl)cc21 (stereo not given),> 339,158 µM,
NC(Cc1ccccc1)c1nccs1 (stereo not given),> 200,> 200 µM,
Cc1cc(C)cc(N(C2=NCCS2)C2=NCCS2)c1,> 200,> 200 µM,
CN1C(=O)c2cccc3cc([N+](=O)[O-])cc(c23)C1=O,> 53.7,10.2 µM,
CC(=S)N=Cc1c(O)[nH]c(=O)[nH]c1=O,> 200,> 200 µM,
N#Cc1ccc(C2ON=C(c3ccccc3)N2C23CC4CC(CC(C4)C2)C3)cc1 (stereo not given),> 200,151 µM,
